Patent US20230104487A1, “11-(4-CHLOROPHENYL)-4-(2,3-DIHYDRO-1H-INDOLE-1-CARBONYL)-3,11-DIMETHYL-5,10,DIOXATRICYCLO[7.4.0.0,2,6,]TRIDECA-1,3,6,8-TETRAEN-13-ONE AND DERIVATIVES AS DESTABILIZER OF CRY1 FOR THE TREATMENT OF CIRCADIAN RHYTHM ASSOCIATED DISEASES AND DISORDERS” (KOC UNIVERSITESI, priority 2019, published 2023)
Entries after “also recorded” stand apart in the source; their conditions may differ. Read-outs that look alike come from different tables or passages of the source.

What was measured:
[1] = Plasma pharmacokinetics in mice; type: in vivo, mouse
Experimental: C57BL/6J female mice (n=4 per each time point) were treated with 100 mg/kg single dose of FORMULA I intraperitoneally. Blood samples were collected 0, 0.5, 1, 2, 4, 8, 12 and 24 h after administration of FORMULA I by cardiac puncture under isoflurane anesthesia. Plasma was obtained by centrifugation from heparinized tubes and stored at −80° C. until analysis. Brain tissues were quickly removed and stored at −80° C. for further processing. For assessment of the brain exposure of FORMULA I, levels in this tissue were only determined at 2nd (n=2) and 4th (n=2) hours according to maximum concentrations of the molecule in plasma.
Liquid chromatography coupled to tandem mass spectrometry (LC-MS/MS) was used to obtain high mass accuracy data of the analytes in plasma samples for the determination of FORMULA I and Internal standard (IS) Loratadine. The instrument was operated in full scan mode and ion source parameters were optimised for the analytes. The optimized conditions of the electrospray ionization (ESI) source were as follows: gas temperature, 300° C.; gas flow, 10 L/min; nebulizer pressure, 25 psi; capillary voltage, 5500 V. ESI in the positive ion mode provides the best results for FORMULA I. For MS-MS detection, the protonated molecules were selected as precursor ions and the most abundant fragment ions obtained at collision energy of 22-20 eV were monitored as the product ions for FORMULA I and IS. MS-MS analysis was performed in the selected reaction monitoring (SRM) positive ionization mode, using mass transitions for FORMULA I m/z 472.1→353.4 [collision energy (CE)=22 eV] and Fragmentor 234 V, for IS; m/z 383.2→337.2 (CE=20 eV) and fragmentor 140 V. For the separation of the analytes, a conventional reversed-phase LC separation on C18-bonded silica was used, with Methanol: % 0.1 Formic acid (90:10, v/v) mobile phase. FORMULA I was extracted from plasma samples by using liquid-liquid extraction with Methanol. 10 μL of sample was injected into the LC-MS/MS system.
Peak plasma concentration (Cmax) and time to reach peak plasma concentration (tmax) values were directly obtained from the FORMULA I plasma concentration-time curve. The area under the plasma concentration-time curve from […] was calculated by the trapezoidal method. AUC0-∞ was obtained by addition of the extrapolated part after the last sampling time using standard techniques. Other pharmacokinetic parameters of FORMULA I were calculated by the non-compartmental method. Elimination rate constant (kel) was calculated from the terminal points of FORMULA I plasma concentration-time plot and the slope of this line was equal to kel. Terminal elimination half-life (t½) was calculated by ln-linear approximation of terminal points of the data. t½ and kel were interconverted with the following formula: t1/2=ln 2/kel

[2] = test system: Per2; assay: Per2 mRNA in mouse liver (qPCR); type: in vivo; conditions: 25 and 50 mg/kg i.p., 6 h
Experimental: FIGS. 5A-5G are an illustration of FORMULA I decreased the nuclear CRY1 in mice liver. FORMULA I (25 mg/kg or 50 mg/kg) or vehicle intraperitoneally administered to C57BL/6J mice. 6 h after the treated mice were sacrificed (n=3). […] FIGS. 5A-5B show an effect of FORMULA I in WCL. FIG. 5C-5D show an effect of FORMULA I in cytosolic fraction. FIGS. 5E-5F show an effect of FORMULA I in nuclear fraction of muce liver. […] (Data represent the mean±SEM, n=3 (with duplicates in RT-PCR) *: p<0.05 versus control by student t-test).
QIAGEN RNeasy Mini Kit was used to isolate the mRNA. Protocol provided by the manufacturer was followed. On-column DNase treatment was performed with the DNase enzyme provided with the kit. […] Quantity of RNA was determined by Nanodrop 2000 (Thermo Scientific). […] For quantitative real time PCR (qRT-PCR) analysis cDNAs were further diluted 5-fold (1:5). mRNA expression levels were calculated by qRT-PCR with the SYBR Green. […] 10 seconds denaturation, 57 to 62° C. for 20 seconds annealing (the degree is determined by primer type) and 72° C. for 30 seconds of elongation, 35 cycles. […]
Since CRYs are stabilized and degraded differently in cytosolic and nuclear compartments, we further analyzed the level of CRY1 in the cytosolic and nuclear fraction of the mouse liver. […]

[3] = female, C57BL/6J, mouse, ip, 100 mg/kg, single dose, plasma

SMILES: Cc1c(C(=O)N2CCc3ccccc32)oc2ccc3c(c12)C(=O)CC(C)(c1ccc(Cl)cc1)O3 (stereo not shown) [FORMULA I, 11-(4-chlorophenyl)-4-(2,3-dihydro-1H-indole-1-carbonyl)-3,11-dimethyl-5,10,dioxatricyclo[7.4.0.0,2,6,]trideca-1,3,6,8-tetraen-13-one]
- time plasma level first detected ([1]; 100 mg/kg, single dose, i.p.): 0.5 h
- time plasma level still quantifiable ([1]; 100 mg/kg, single dose, i.p.): 24 h
- kel ([1]; 100 mg/kg, single dose, i.p., plasma): 0.127 ± 0.01 h⁻¹
- AUC(0-inf) [1, 3]: 5190 ± 3130 ng·h/mL
- Cmax [1, 3]: 1150 ± 506 ng/mL
- Tmax [1, 3]: 2 to 4 h
- half-life ([1]; female, C57BL/6J, mouse, plasma, intraperitoneal, 100 mg/kg, in vivo, mice, read-out: half-life in blood (converted)): 360 min
- half-life ([1]; female, C57BL/6J, mouse, plasma, ip, 100 mg/kg, single dose, i.p., plasma, read-out: t1/2 (converted)): 330 ± 19.8 min
- half-life in blood ([1]; in vivo, mice): ~6 h
- Per2 mRNA level in liver [2]: significantly increased; also recorded: increased the mRNA level of Per2
